For assay [1], the system named is Collagen Induced Arthritis (CIA) in female Lewis rats. Nature of the assay: In vivo chronic study: Collagen Induced Arthritis (CIA). Conditions: 0.5 mg/Kg. Further details: species or system rat. As to the method: Female Lewis rats (8 per group, 6-8 weeks old) were immunized on day 1 with type II collagen (Immunization grade Bovine type II; Chondrex; Cat #20021) emulsified with Complete Freund's Adjuvant (Sigma; Cat # F5881) at a final concentration of 1.2 mg/mL). For the initial immunization, the animals were injected at the base of the tail with 300 μg of the cII (0.25 mL/rat). A booster injection of the same type II collagen emulsified with Incomplete Freund's Adjuvant (Sigma, Cat #F5506) (0.25 mL/rat) was given to the animals on day 8 at the base of the tail (100 μg). The final cII concentration in the booster was […]. […]
Edema: Paw volumes are measured by Plethysmometry for the animals before induction of CIA (Basal readings) and on Day 1, 3, 6 and 9 of dosing period. Both hind paw volumes were measured and edema was calculated by subtracting from the basal mean.
Arthritic score: Animals were scored for the symptoms of arthritis every day starting from Day of onset of disease till the end of the study. Both the hind paws were scored and the total scores were averaged and compared with control. […]
The percent inhibition of Edema was calculated with respect to control by the formula: […]
The percent inhibition of Arthritic score was calculated with respect to control by the formula: […]

A further assay deals with JAK2 (Homo sapiens (Human), UniProt O60674). The experiment in a line: Inhibition of enzymatic JAK2 kinase activity (TR-FRET). The format is biochemical. The source says:
The objective of this assay was to screen compounds in a Time-resolved fluorescence resonance energy transfer (TR-FRET) Enzymatic assay method for their potential to inhibit JAK2 (Janus kinase) activity.
TR-FRET assays are homogeneous proximity assays where Eu-labeled antiphosphotyrosine antibody binds to the phosphorylated substrates labeled with Ulight fluorescence acceptor. Eu can transfer energy to Ulight accepter in the complex and the interaction of two dye-labeled binding partners is detected by the energy transfer between a donor and an acceptor dye, and the subsequent light emission by the acceptor dye. The intensity of the light emission is proportional to the level of Ulight peptide phosphorylation.
Two μL of 10% DMSO in blank, substrate control and positive control wells and 2 μL of test compound in test wells was added. Thirteen μL of assay buffer in blank and substrate control wells and 13 μL of Enzyme buffer mix in positive and test wells was added. The reaction mixture was incubated for 30 minutes at RT on a plate shaker. […] The reaction plate was incubated for 60 minutes at RT on a plate shaker. The reaction was stopped by adding 40 mM EDTA (10 μL) in buffer. Ten μL of antibody was added to all the wells. The plate was read in a Wallac® 1420 Multilabel Counter Victor 3 instrument (Ex: 340 nm Em: 615 & 665 nm) The following calculations were made:
F@ 665 Value-Buffer blank […]

The target in assay [2] is Syk (356-635 amino acids)-catalytic domain (Homo sapiens (Human), UniProt P43405). Nature of the assay: Inhibition of enzymatic Syk kinase activity (radiometric). The format is biochemical. From the text:
The objective of this assay was to examine by radiometric method the ability of compounds to inhibit Syk kinase enzyme. Syk is capable of phosphorylating substrates such as VAV, LAT, SLP-76, which in turn activate MAPK, PLCγ signaling pathways. […] This in vitro assay tests the ability of syk to phosphorylate a substrate peptide in the presence of ATP. By using a radio-labeled form of ATP, it is possible to measure the amount of phosphorylation of the substrate. The enzyme transfers a radio-labeled phosphate group from γ32 P labeled ATP to pG4T. Briefly the enzyme was incubated with substrate, radio-labeled & cold ATP and substrate in buffer with or without compounds. At the end of the reaction, the reaction mixture was transferred on to a Multiscreen filter plate and unreacted γ^32P ATP was washed off. The filter plate was dried and the radioactivity was measured on a scintillation counter to estimate the incorporated radioactivity on the substrate. The percent inhibition of activity of the enzyme was calculated by comparing counts in the presence and absence of compounds. […] Microscint-O® reagent (100 μL, Perkin Elmer) was added to each well, the plate was sealed with Topseal®-A microplates and incubated for 10 minutes at room temperature at very low speed on rocker and the plate was read in the Topcount® NXL instrument.

A further assay relates to RBL2H3 cells. Nature of the assay: Degranulation assay: β-hexosaminidase release during immune complex mediated degranulation. The format is cell-based, Rat. The procedure:
The objective of this assay was to examine by Fluorescence method the effect of compounds on β-hexosaminidase release during immune complex mediated degranulation in RBL2H3 cells. Compounds were tested for their ability to inhibit the ability of this immune complex to mediate β-hexosaminidase release, in an enzyme assay with p-nitrophenyl-β-D-glucosaminide as substrate. […] Emission 460 nm). RBL2H3 cells were maintained in MEM complete media containing 10% FBS at 70%-80% confluence in a mammalian cell culture CO2 incubator with 5% CO2 at 37° C. 2×10^5 cells/well were plated in 1 mL of complete media and incubated for 5 hours for cell attachment. Complete media was replaced with 1 mL of serum free MEM media containing 1.2 μg/mL of anti-DNP rat IgE as sensitizing agent and further incubated overnight with 5% CO2 at 37° C. […] Cells were further stimulated with 5 μg/mL of DNP-BSA for 60 minutes. Plates were centrifuged for 5 minutes at 1000 rpm and 25 μL of culture supernatant was transferred from each assay well into a 96 well black coated plate. 25 μL β-NAG substrate was added to this mixture and incubated at room temperature for 30 minutes. The reaction was terminated with 100 μL of stop solution and fluorescence was monitored. (Excitation 355 nm; Emission 460 nm) See, Sanderson, (2010), Cellular Immunology, 262(1): 28-34 and Silverman, (2006) MCB, 26(5):1826-1838, which are incorporated herein by reference. The % release of β-Hexosaminidase for the test compound was calculated using the following formula: RBL2H3 cells were maintained in MEM complete media containing 10% FBS at 70-80% confluence in a mammalian cell culture CO2 incubator with 5% CO2 at 37° C. 5×10^4 cells/well were plated in 200 μL of complete media containing 0.3 μg/mL of anti-DNP rat IgE as sensitizing agent for 24 hours at 37° C. & 5% CO2. The following day, cells were washed twice with PIPES buffer for 10 minutes at 37° C. and replenished with serum free MEM media. […] After incubation with substrate, 150 μL of stop solution was added and fluorescence was monitored. […]

Bounds are passed on as bounds.

Sequence of JAK2 (O60674 808-1132): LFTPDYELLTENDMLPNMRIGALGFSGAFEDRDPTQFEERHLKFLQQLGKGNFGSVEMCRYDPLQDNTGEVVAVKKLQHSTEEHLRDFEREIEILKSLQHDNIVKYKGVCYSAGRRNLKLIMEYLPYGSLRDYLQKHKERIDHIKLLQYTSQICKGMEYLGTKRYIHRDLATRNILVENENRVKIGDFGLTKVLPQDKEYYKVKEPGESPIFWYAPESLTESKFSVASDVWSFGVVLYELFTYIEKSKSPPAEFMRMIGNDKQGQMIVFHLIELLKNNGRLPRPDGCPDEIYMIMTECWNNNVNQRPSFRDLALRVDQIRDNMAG

As for `CN(Cc1cnc2nc(N)nc(N)c2n1)c1ccc(C(=O)N[C@@H](CCC(=O)O)C(=O)O)cc1` [Methotrexate, methotrexate], in assay [1] (Day 9 of dosing), the “Percent inhibition of Edema (Day 9 of dosing)” value was 6%. The “Percent inhibition of Arthritic score (Day 10 of dosing)” value in assay [1] (Day 10 of dosing) amounted to 15%.

On to `O=c1[nH]ncc2nc(N3CCCCCC3)nc(Nc3ccc(N4CCN(CCO)CC4)cc3)c12` [Example 190, 2-(azepan-1-yl)-4-((4-(4-(2-hydroxyethyl)piperazin-1-yl)-phenyl)amino)pyrimido[4,5-d]-pyridazin-5(6H)-one], for which the IC50 (on JAK2; in assay [2]) was below 10 nM throughout. The compound also displayed an inhibition at 1 µM with RBL2H3 cells (Rattus norvegicus, RBL-2H3, 1 μM, Assay Protocol B (96 well format)) of 83%. Further, the EC50 in the assay with RBL2H3 cells (Rattus norvegicus, RBL-2H3, Assay Protocol B (96 well format)) was determined as 21 nM.

As to `N=Cc1nc(N2CCCCCC2)nc(Nc2ccc(N3CCCC(CC(=O)O)C3)cc2)c1C(N)=O` (stereo not shown) [Example 232], the “Degranulation % inhibition at 1 μM” value with RBL2H3 cells (1 μM, Assay Protocol B (96 well format)) was found to be 0%.
